Like-named read-outs stand apart in the source and are kept apart here.

In assay [1] the test system is IL29/IL28b induction (IFNλ1/λ3). Nature of the assay: Type III IFN induction, human IL29/IL28b ELISA, SKBR3/PBMC co-cultures (Example 33). The following applies: SK-BR-3, SKBR3/PBMC co-culture, supernatants 24 hours post treatment. Type of assay: cell-based. Here is the method: (§1) Type III IFN induction: Co-cultures of SKBR3 cells and PBMCs were setup as described above to analyze the induction of Type III Interferons in supernatants 24 hours post treatment using a human IL29/IL28b ELISA kit.

In assay [2] the test system is STING wild type (sgNT-2) SKBR3 cells. Nature of the assay: PBMC killing assay, STING wild type SKBR3 NucRed cells (Examples 30, 30A). In kind it is cell-based, human. The following applies: 100, 25, 5 and 1 nM payload.
Assay [3] deals with CXCL10 produced by the SKOV3 cancer cell monocultures. Nature of the assay: CXCL10 ELISA of SKOV3 monocultures with conditioned media from immune cells (Example 36). The following applies: 24 hours. In kind it is cell-based, human. Here is the method:
Conditioned media was prepared by culturing 1.5×10^6/mL PBMCs (two different donors), 1×10^6/mL primary monocytes (isolated from PBMCs from two different donors, as described in Example 29), or 1×10^6/mL THP1 cells in RPMI-1640 medium with 10% FBS and 1% penicillin/streptomycin for 24 hours at 37° C., 5% O2, in an incubator. The supernatants were collected and spun down at 2000 rpm for 10 min to remove any cells. SKOV3 cells were seeded in 96 well plates (30,000/well) and allowed to attach overnight in RPMI-1640 medium with 10% FBS and 1% penicillin/streptomycin. […] After incubation for 24 hours at 37° C., 5% O2 supernatants from the 96 well plates were analyzed for CXCL10 production using a human CXCL10 ELISA kit.
On the technique in general: ELISA stands for enzyme-linked immunosorbent assay.

Assay [4] has as its system THP1-Dual cells cultured on NaPi2b recombinant peptide coated plates. Nature of the assay: THP1 luciferase reporter cells on NaPi2b peptide coated plates (Example 27A). Type of assay: cell-based. Particulars: Homo sapiens, 20 h. In general terms: A reporter such as luciferase makes a cellular process visible.
Protocol: Human NaPi2b-derived peptide ([sequence]) was coated onto the surface of each well of a 96-well plate by incubation with the peptide (1p g/mL in PBS), overnight at 4° C. The wells were then washed 1× with PBS-T and blocked by incubation with BSA (3% in PBS-T) for 1 hour at room temperature. […] THP1-dual reporter cells (50,000) were added into each well and incubated for 20 hours at 37° C. in a humidified atmosphere of 5% CO2. Cell culture supernatants (20 μl) from each incubated sample was added to resuspended QUANTI-Luc (50 μl) and the luminescent signal was measured immediately using a SpectraMax M5 plate reader (Molecular Devices). The EC50 value was determined from the dose response curve.
Assay [5] concerns STING pathway in THP1-Dual cells co-cultured with OVCAR3 cancer cells. Nature of the assay: Cancer cell/THP1-IRF3-Luciferase reporter cell co-culture assay, OVCAR3 (Example 26A). In kind it is cell-based. Particulars: Homo sapiens, OVCAR-3, 20 h.
Protocol: Induction of STING pathway in immune cells: The induction of STING pathway in immune cells by NaPi2b-targeted STING ADC was evaluated by a cancer cell/THP1-IRF3-Luciferase reporter cell co-culture assay. OVCAR3 human ovarian carcinoma cells were seeded in 96-well CellBind surface tissue culture plates (15,000/well) and allowed to attach for 6 hours in RPMI-1640 medium with 10% FBS and 1% penicillin/streptomycin. […] THP1-dual reporter cells (30,000) were then added to each well and the incubation continued for 20 hours at 37° C. in a humidified atmosphere of 5% CO2. Cell culture supernatants (20 μl) from each incubated sample was added to resuspended QUANTI-Luc (50 l) and the luminescent signal was measured immediately using a SpectraMax M5 plate reader (Molecular Devices). The EC50 value was determined from the dose response curve.
Assay [6] deals with STING pathway in THP1-Dual cells co-cultured with SKBR3 cancer cells. Nature of the assay: Cancer cell/THP1-IRF3-Luciferase reporter cell co-culture assay, SKBR3 (Example 26B). The following applies: Homo sapiens, SK-BR-3. In kind it is cell-based.
The subject of assay [7] is OVCAR3-NucRed cancer cells. Nature of the assay: OVCAR3-NucRed co-cultures with PBMCs, enriched monocytes or CD16-depleted monocytes (Example 31). In kind it is cell-based, human. The following applies: 20 and 4 nM payload. The text has this: Frozen human PBMCs (1×10^8) were thawed and aliquoted into three tubes: one aliquot was subjected to human monocyte enrichment [StemCell Technologies] (“CD16 depleted monocytes”), one aliquot was subjected to human monocyte enrichment without CD16 depletion [StemCell Technologies] (“enriched monocytes”), and one aliquot was not subjected to enrichment (“PBMCs”). For flow cytometry, cells (50,000) from each group were transferred to a U-bottom 96-well plate in 4-replicates, washed with PBS and stained with live/dead fixable Aqua dead cell staining dye (Molecular Probes) followed by staining with fluorophore conjugated target specific (triplicates) or isotype control antibodies (Pacific Blue anti-human CD14, FITC anti-human CD3, APC/Cy7 CD16, PE anti-human CD32, PE/Cy7 anti-human CD64). Cells were fixed and surface expression of the proteins of interest was determined by flow cytometry analysis on a MACSQuant flow cytometer. Data analysis was performed by FlowJo software. Table 3 provides the frequency (% of single/live cells)) of CD14−/CD16+, CD14+/CD16+, CD14−/CD32+, CD14+/CD32+, CD14−/CD64+, CD14+/CD64+, and CD14−/CD3+ cells in PBMCs, enriched monocytes, and CD16-depleted monocyte populations
OVCAR3-NucRed cells (generated as described in Example 28) were seeded (15,000/well) in 96-well CellBind surface tissue culture plates (Corning) and allowed to attach for 6 hours in RPMI-1640 medium with 10% FBS and 1% penicillin/streptomycin. Culture medium was replaced with fresh media (50 μL). […] PBMCs, enriched monocytes, and CD16-depleted monocytes were prepared as described in Example 29. Live PBMCs (30,000/well), enriched monocytes (20,000/well), and CD16-depleted monocytes (20,000/well) were then added to the wells in culture medium (50 μL) and the plate was placed in an IncuCyte© live cell imaging instrument in an incubator (37° C., 5% 02) and scanned every 4 hours over 2 days. The number of red objects (cancer cells) were quantified using the IncuCyte© Zoom software. Red object confluency in each well was normalized to its own T=0 time point red object confluency.

Assay [8] concerns THP1-Dual cells cultured on Her2 recombinant protein coated plates. Nature of the assay: THP1 luciferase reporter cells on Her2 protein coated plates (Example 27B). The following applies: Homo sapiens. Type of assay: cell-based.
Protocol: The wells were then washed 1× with PBS-T and blocked by incubation with BSA (3% in PBS-T) for 1 hour at room temperature. […] THP1-dual reporter cells (50,000) were added into each well and incubated for 20 hours at 37° C. in a humidified atmosphere of 5% CO2. Cell culture supernatants (20 μl) from each incubated sample was added to resuspended QUANTI-Luc (50 μl) and the luminescent signal was measured immediately using a SpectraMax M5 plate reader (Molecular Devices). The EC50 value was determined from the dose response curve.
In assay [9] the test system is Type III Interferons IFNλ1/IFNλ3 (IL29/IL28b). Nature of the assay: IFNλ1/IFNλ3 (IL29/IL28b) production, STING wild type SKBR3/PBMC co-cultures (Example 42). In kind it is cell-based, human. Here is the method:
as §1

For assay [10] the test system is unchanged. Nature of the assay: IFNλ1/IFNλ3 (IL29/IL28b) production, STING knock out SKBR3/PBMC co-cultures (Example 42). Type of assay: cell-based, human. As to the method:
as §1

The subject of assay [11] is CXCL10 induction. Nature of the assay: CXCL10 induction in SKBR3 cancer cell/PBMC and monocyte co-cultures (Example 33). In kind it is cell-based. The following applies: Homo sapiens.
The test system of assay [12] is SKBR3 NucRed cells. Nature of the assay: Cancer cell killing activity in SKBR3 NucRed/PBMC or primary human monocyte co-cultures (Example 33). In kind it is cell-based.
Protocol: 20,000 cells (per well) SKBR3 NucRed cells were seeded in 96-well tissue culture plates and allowed to attach 6 hours in 50 μL of RPMI-1640 medium with 10% FBS and 1% penicillin/streptomycin.
The subject of assay [13] is SKOV3 human ovarian cancer cells. Nature of the assay: SKOV3 xenograft, Fc mutant HER2 ADCs (Example 54). Type of assay: in vivo, mouse. The following applies: iv day 1, n=10: Conjugate 8j 2.71/0.10, diABZI IV STING agonist 0/5 mg/kg. As to the method: Tumors were measured twice weekly using digital calipers and tumor volumes were calculated using the formula: tumor volume (mm^3)=(width^2×length)/2. Body weights were recorded daily for the first week and twice weekly thereafter. Animals remained on study until individual tumor volume reached ≥1000 mm^3≥1500 mm^3 or as indicated. Percent change in body weight was calculated using the formula: body weight change (%)=((weight^study day X−weight^study day 1)/weight^study day 1)*100. Tumor volumes are reported as mean±standard error of the mean (SEM). Tumor growth inhibition (% TGI) was defined as the percent difference in mean tumor volumes (MTVs) between treated and control groups. Tumor size was measured throughout each efficacy study to determine tumor growth inhibition (TGI). Percent tumor regression was calculated using the formula: % regression=(1−(mean tumor volume^final)/(mean tumor volume^day 1))*100. A partial response (PR) is defined as a tumor volume of 50% or less for day 1 volume for three consecutive measurements and equal to or greater than 13.5 mm^3 for at least one of these three measurements. A complete response (CR) is defined as a tumor volume less than 13.5 mm^3 for three consecutive measurements. A tumor-free survivor (TFS) is classified as having a CR at the end of study. […]

The subject of assay [14] is STING pathway in THP1-Dual cells co-cultured with SKOV3 cancer cells. Nature of the assay: Cancer cell/THP1-IRF3-Luciferase reporter cell co-culture assay, SKOV3 (Example 34). Type of assay: cell-based. Particulars: Homo sapiens, SK-OV-3, 20 h.
Protocol: The induction of STING pathway in immune cells by Her2-targeted STING ADC was evaluated by a cancer cell/THP1-IRF3-Luciferase reporter cell co-culture assay. SKOV3 human ovarian adenocarcinoma cells were seeded in 96-well CellBind surface tissue culture plates (20,000/well) and allowed to attach for 6 hours in McCoy's 5a medium with 10% FBS and 1% penicillin/streptomycin. […] 50,000 THP1-dual reporter cells were then added to each well and the incubation continued for 20 hours at 37° C. in a humidified atmosphere of 5% CO2. Cell culture supernatants (20 μL) from each incubated sample was added to resuspended QUANTI-Luc (50 μL) and the luminescent signal for IRF3 was measured immediately using a SpectraMax M5 plate reader (Molecular Devices). The EC50 value was determined from the dose response curve.
For assay [15], the system named is CXCL10 induction. Nature of the assay: CXCL10 induction in Calu3 cancer cell/PBMC co-cultures (Example 35). Type of assay: cell-based. Particulars: Homo sapiens, Calu-3, read-out: EC50 - PBMC (CXCL10 induction).
Protocol: CXCL10 induction: Calu3 human lung adenocarcinoma cells were seeded in 96-well tissue culture plates and allowed to attach overnight at 37° C., 5% CO2 in 100 μL of EMEM medium with 10% FBS and 1% penicillin/streptomycin. Culture medium was replaced with fresh media (100 μL).
The subject of assay [16] is OVCAR3-NucRed cells. Nature of the assay: OVCAR3-NucRed/PBMC co-culture killing assay (Example 28B). In kind it is cell-based, human. As to the method:
OVCAR3 human ovarian carcinoma cells stably expressing nuclear restricted mKate fluorescent red protein were generated by transduction with IncuCyte© NucLight Red Lentivirus reagent. Stably transduced cells (designated as OVCAR3-NucRed cells) selected in puromycin-containing media (2 μg/mL) for two days, were seeded in 96-well tissue culture plates (8,000/well) and allowed to attach overnight in RPMI-1640 medium with 10% FBS and 1% penicillin/streptomycin. Culture medium was replaced with fresh media (50 μL). […] Frozen human peripheral blood mononuclear cells (PBMCs) were thawed according to the supplier's instructions and were added to each well (40,000 PBMCs in 50 μL media) and the plate was placed in an IncuCyte© live cell imaging instrument in an incubator (37° C., 5% 02) and scanned every 4 hours over 2 days. The number of red objects (cancer cells) were quantified using the IncuCyte© Zoom software. Red object confluency in each well was normalized to its own T=0 time point red object confluency.
OVCAR3-NucRed cells were seeded in 96-well tissue culture plates (20,000/well) and allowed to attach 6 hours in RPMI-1640 medium with 10% FBS and 1% penicillin/streptomycin. Culture medium was replaced with fresh media (50 μL). […] The number of red objects (cancer cells) were quantified using the IncuCyte© Zoom software. […]

For `CCn1nc(C)cc1C(=O)Nc1nc2cc(C(N)=O)cc(OC)c2n1C/C=C/Cn1c(NC(=O)c2cc(C)nn2CC)nc2cc(C(N)=O)cc(OCCCO)c21` [Compound 1], the EC50 in assay [1] was 28.3 nM; in assay [4], 5.18 nM; in assay [5] it was 6.8 nM; in [6], 7.4 nM; in assay [8], 8.8 nM; in assay [9] (Homo sapiens, SK-BR-3, read-out: EC50 (IL29/IL28b production)), 49.3 nM. Moreover, the EC50 is 31.1 nM in [11] (Monocyte, read-out: EC50 - Monocyte (CXCL10 induction)) and 26.1 nM in assay [11] (SK-BR-3, read-out: EC50 - PBMC (CXCL10 induction)). Moreover, the “killing of SKBR3 cells/PBMC co-cultures (FIG. 3A)” value in [2] was “showed activity in STING wild type (sgNT-2) SKBR3 cells/PBMC co-cultures at 100 nM only”. Moreover, the “O.D. 450 + 100 nM Compound 1 (CXCL10)” value in assay [3] (Conditioned Media: Monocyte (Donor1)) is 1.62 +/− 0.050 O.D. 450; in assay [3] (Conditioned Media: Monocyte (Donor2)), 0.97 +/− 0.142 O.D. 450; in assay [3] (Conditioned Media: None), 0.16 +/− 0.038 O.D. 450; in assay [3] (Conditioned Media: PBMC (Donor1)) it was 2.22 +/− 0.084 O.D. 450; in [3] (Conditioned Media: PBMC (Donor2)), 0.83 +/− 0.086 O.D. 450; in assay [3] (Conditioned Media: THP1), 0.18 +/− 0.043 O.D. 450. Also, the “killing of OVCAR3-NucRed cancer cells by CD16 depleted monocytes (FIG. 5C)” value in [7] was “induced cancer cell killing”. In addition, the “killing of OVCAR3-NucRed cancer cells by PBMCs (FIG. 5A)” value in [7] was “only in enriched monocyte and CD16-depleted monocyte co-cultures”. The “killing of OVCAR3-NucRed cancer cells by enriched monocytes (FIG. 5B)” value in assay [7] is “induced cancer cell killing”. The “Bmax (IL29/IL28b production)” value is 0.5 OD450 in assay [9] (STING wild type SKBR3/PBMC), 0 OD450 in assay [10] (STING knock out (sgRNA#3) SKBR3/PBMC) and 0 OD450 in assay [10] (STING knock out (sgRNA#4) SKBR3/PBMC). The IC50 in assay [12] (SK-BR-3, read-out: IC50 - Monocyte (killing activity)) is 8.32 nM; in assay [12] (SK-BR-3, read-out: IC50 - PBMC (killing activity)), 9.51 nM.

Regarding diABZI IV STING agonist, the “PR (partial responses)” value in assay [13] worked out at 7.

With `CCc1nc(C)oc1C(=O)Nc1nc2cc(C(N)=O)cnc2n1C/C=C/Cn1c(NC(=O)c2oc(C)nc2CC)nc2cc(C(N)=O)cc(OCCCO)c21` [Compound 30], the figures for the EC50 in assay [14] and in assay [15] were 38.5 nM and 160 nM, respectively.

B1: Conjugate 81: "XMT-1535 was used instead of XMT-1519 and 2-(2-(2-(2-aminoethoxy)ethoxy)ethoxy)acetic acid was incorporated" instead of (3-(2-(2-aminoethoxy)ethoxy)propanoyl)-L-alanine (conjugate, chains of the INN, looked up)
VH: QVQLVQSGAEVVKPGASVKMSCKASGYTFTGYNIHWVKQAPGQGLEWIGAIYPGNGDTSYKQKFRGRATLTADTSTSTVYMELSSLRSEDSAVYYCARGETARATFAYWGQGTLVTVSS
VL: DIQMTQSPSSLSASVGDRVTITCSASQDIGNFLNWYQQKPGKTVKVLIYYTSSLYSGVPSRFSGSGSGTDYTLTISSLQPEDFATYYCQQYSKLPLTFGQGTKLELK
modifications: drug-linker conjugate with PEG linker
Consider B1, for which the “lower payload concentration compared to Compound 1 for induction of cancer cell killing” value in assay [16] is recorded as 100 ×. Moreover, the “cancer cell killing by PBMCs (red object numbers, FIG. 1B)” value in assay [16] (1-100 nM payload) is reported as “robust induction of cancer cell killing”.

For orientation: IC50 means the concentration that gives 50% inhibition.

These data come from patent US12440576B2, “Antibody drug conjugates comprising sting agonists” (Mersana Therapeutics, Inc., priority 2020, dated 2025).
